Measurements published in ChEMBL document CHEMBL1201862, “PubChem BioAssay data set” (2004).
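Values below derive from 48-hour exposures of cells grown in 96-well plates, with endpoints linearly interpolated between the two concentrations bracketing the appropriate inhibition level. GI50 = concentration required for 50% inhibition of growth.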 The source made the active and inactive calls. Cut-off read from the data, not from the text of the source: active = GI50 up to about 1.1 µM and inactive = higher.

Assays:
Test in all cases: NCI anticancer screen, dose series, 48 h
A498 = system: A498
LOX IMVI = system: LOX IMVI
IGROV-1 = system: IGROV-1
MOLT-4 = system: MOLT-4
HOP-92 = system: HOP-92
SK-MEL-2 = system: SK-MEL-2
EKVX = system: EKVX
786-0 = system: 786-0
SK-MEL-28 = system: SK-MEL-28
OVCAR-3 = system: OVCAR-3
UO-31 = system: UO-31
SK-MEL-5 = system: SK-MEL-5
NCI-H226 = system: NCI-H226
ACHN = system: ACHN
UACC-257 = system: UACC-257
RPMI-8226 = system: RPMI-8226
SK-OV-3 = system: SK-OV-3
SNB-75 = system: SNB-75
SW-620 = system: SW-620

SMILES	GI50 (A498)	GI50 (LOX IMVI)	GI50 (IGROV-1)	GI50 (MOLT-4)	GI50 (HOP-92)	GI50 (SK-MEL-2)	GI50 (EKVX)	GI50 (786-0)	GI50 (SK-MEL-28)	GI50 (OVCAR-3)	GI50 (UO-31)	GI50 (SK-MEL-5)	GI50 (NCI-H226)	GI50 (ACHN)	GI50 (UACC-257)	GI50 (RPMI-8226)	GI50 (SK-OV-3)	GI50 (SNB-75)	GI50 (SW-620)
Cc1c2ccncc2c(C)c2c1[nH]c1ccc(OC(C)C)cc12	1.47 µM (inactive)	1.18 µM (inactive)	1.43 µM (inactive)	0.59 µM (active)	1.51 µM (inactive)	1.58 µM (inactive)	1.4 µM (inactive)	1.19 µM (inactive)	1.66 µM (inactive)	1.61 µM (inactive)	1.53 µM (inactive)	1.77 µM (inactive)	1.63 µM (inactive)	1.29 µM (inactive)	1.82 µM (inactive)	1.99 µM (inactive)	1.42 µM (inactive)	1.83 µM (inactive)	0.547 µM (active)
Cc1ccc2c(c1)C(C(=O)N[C@@H]1C(=O)N3[C@@H]1SC(C)(C)[C@@H]3C(=O)O)OCCC2 (stereo partly specified)	> 100 µM (inactive)	> 100 µM (inactive)	> 100 µM (inactive)	> 100 µM (inactive)	> 100 µM (inactive)	> 100 µM (inactive)	> 100 µM (inactive)	> 100 µM (inactive)	> 100 µM (inactive)	87.1 µM (inactive)	> 100 µM (inactive)	> 100 µM (inactive)	> 100 µM (inactive)	> 100 µM (inactive)	> 100 µM (inactive)	> 100 µM (inactive)	> 100 µM (inactive)	> 100 µM (inactive)	> 100 µM (inactive)
Nc1c(C(=O)NC23CC4CC(CC(C4)C2)C3)[n+]([O-])c2ccccc2[n+]1[O-]	> 100 µM (inactive)	> 100 µM (inactive)	> 100 µM (inactive)	> 100 µM (inactive)	90.4 µM (inactive)	> 100 µM (inactive)	> 100 µM (inactive)	> 100 µM (inactive)	> 100 µM (inactive)	> 100 µM (inactive)	> 100 µM (inactive)	> 100 µM (inactive)	> 100 µM (inactive)	> 100 µM (inactive)	> 100 µM (inactive)	> 100 µM (inactive)	> 100 µM (inactive)	> 100 µM (inactive)	> 100 µM (inactive)
Cc1ccccc1-n1c(C)nc(-c2ccccc2)cc1=O	> 100 µM (inactive)	> 100 µM (inactive)	> 100 µM (inactive)	> 100 µM (inactive)	> 100 µM (inactive)	> 100 µM (inactive)	> 100 µM (inactive)	> 100 µM (inactive)	> 100 µM (inactive)	> 100 µM (inactive)	> 100 µM (inactive)	> 100 µM (inactive)	> 100 µM (inactive)	> 100 µM (inactive)	> 100 µM (inactive)		> 100 µM (inactive)	37.7 µM (inactive)	> 100 µM (inactive)
CSc1nc(NC2OCC(OC(C)=O)C(OC(C)=O)C2OC(C)=O)c(/N=C(\C)C(C)=O)c(=O)n1C (stereo unspecified)	> 100 µM (inactive)	> 100 µM (inactive)	> 100 µM (inactive)	> 100 µM (inactive)	> 100 µM (inactive)	> 100 µM (inactive)	> 100 µM (inactive)	> 100 µM (inactive)		> 100 µM (inactive)	> 100 µM (inactive)	> 100 µM (inactive)	> 100 µM (inactive)	> 100 µM (inactive)	> 100 µM (inactive)	> 100 µM (inactive)	> 100 µM (inactive)	> 100 µM (inactive)	> 100 µM (inactive)
CCOC(=O)Cc1nc2ccc3c(c2nc1O)C(=O)c1ccccc1C3=O	28.4 µM (inactive)	25.5 µM (inactive)	16.9 µM (inactive)	5.45 µM (inactive)	60.4 µM (inactive)	76.4 µM (inactive)	3.61 µM (inactive)	65.6 µM (inactive)	> 100 µM (inactive)	58.3 µM (inactive)	35.4 µM (inactive)	26.1 µM (inactive)	80.7 µM (inactive)	20.6 µM (inactive)	65.8 µM (inactive)	13.6 µM (inactive)	22.8 µM (inactive)	62.7 µM (inactive)	56 µM (inactive)
CN(C)CC1CCCCCCCCCCCCC(CN(C)C)C1=O (stereo unspecified)	18.7 µM (inactive)	8.43 µM (inactive)	17.3 µM (inactive)	2.09 µM (inactive)	13.2 µM (inactive)	12.4 µM (inactive)	22.6 µM (inactive)	10.1 µM (inactive)	13.6 µM (inactive)	16.8 µM (inactive)	13.7 µM (inactive)	14.5 µM (inactive)	11 µM (inactive)	16.2 µM (inactive)	16.3 µM (inactive)		17.7 µM (inactive)	11.9 µM (inactive)	7.64 µM (inactive)
CC1(C)CC(=O)C(CC2C(=O)CCCC2=O)C(=O)C1	> 100 µM (inactive)	> 100 µM (inactive)	> 100 µM (inactive)	> 100 µM (inactive)		> 100 µM (inactive)	> 100 µM (inactive)	> 100 µM (inactive)	> 100 µM (inactive)	> 100 µM (inactive)	> 100 µM (inactive)	> 100 µM (inactive)	> 100 µM (inactive)	> 100 µM (inactive)	> 100 µM (inactive)		> 100 µM (inactive)	> 100 µM (inactive)	> 100 µM (inactive)
Cc1ccc(S(=O)(=O)NC(=O)C2(Br)S(=O)(=O)OCCOS2(=O)=O)cc1	> 100 µM (inactive)	> 100 µM (inactive)	> 100 µM (inactive)	> 100 µM (inactive)	> 100 µM (inactive)	> 100 µM (inactive)	> 100 µM (inactive)	> 100 µM (inactive)	> 100 µM (inactive)	> 100 µM (inactive)	> 100 µM (inactive)	> 100 µM (inactive)	> 100 µM (inactive)	> 100 µM (inactive)	> 100 µM (inactive)	> 100 µM (inactive)	> 100 µM (inactive)	> 100 µM (inactive)	
COC(=O)C(=O)C(C(=O)C(=O)Nc1ccccc1C(N)=O)c1nc2ccc([N+](=O)[O-])cc2nc1O (stereo unspecified)	> 100 µM (inactive)	> 100 µM (inactive)	> 100 µM (inactive)	> 100 µM (inactive)	> 100 µM (inactive)	> 100 µM (inactive)	> 100 µM (inactive)	> 100 µM (inactive)	> 100 µM (inactive)		> 100 µM (inactive)	> 100 µM (inactive)	> 100 µM (inactive)	> 100 µM (inactive)	> 100 µM (inactive)	> 100 µM (inactive)	> 100 µM (inactive)	> 100 µM (inactive)	> 100 µM (inactive)
Cc1cnc[nH]c1=O	> 100 µM (inactive)	> 100 µM (inactive)	> 100 µM (inactive)	> 100 µM (inactive)		> 100 µM (inactive)	> 100 µM (inactive)	> 100 µM (inactive)	> 100 µM (inactive)	> 100 µM (inactive)	> 100 µM (inactive)	> 100 µM (inactive)	> 100 µM (inactive)	> 100 µM (inactive)	> 100 µM (inactive)	> 100 µM (inactive)	> 100 µM (inactive)	> 100 µM (inactive)	> 100 µM (inactive)
